By melting point is commonly meant the temperature, or range, at which the solid turns liquid.

Where only a bound is given, the exact number is not on record here.

For `OCc1c(F)cccc1-c1ccc2nc(-c3ccc(Cl)cc3)cn2c1`, the melting point lay within 229 to 230 °C.

Consider `CCCOc1cc(C(=O)O)ccc1-c1ccc(-c2ccccc2)c(-c2ccc3c(c2)C(C)(C)CCC3(C)C)c1`, for which the melting point lay within 216 to 218 °C.

`CC(C)n1nc(-c2c(N)nc(N)nc2-c2ccccc2)ccc1=O` had a melting point of 258 to 260 °C.

As to `COc1ccc(N2CC(CN3CCC(O)(c4ccccc4)CC3)OC2=O)cc1` (stereo not drawn), the melting point lay within 141 to 143 °C.

`O=C(O)c1ccc(N(CCCc2ccc(Cl)cc2)CCCc2ccc(Cl)cc2)cc1` gave a melting point of 128 to 131 °C.

`Cc1cn(Cc2ccccc2[N+](=O)[O-])c(=O)o1`: the melting point is 82.9 to 83.9 °C.

Molecule `CCOC(=O)c1nc(NC(C)=O)sc1Cc1ccc(SCC)cc1` registered a melting point of 190 °C.

Regarding `O=C(O)Cc1c(C(=O)c2ccc(Cl)c(Cl)c2)[nH]c2cc(Cl)ccc12`, the melting point is 206 to 209 °C.

Consider `CC=CC(=O)Nc1cccc(OC(=O)Nc2ccc(Cl)c(Cl)c2)c1`, for which the melting point was in the range of 193 to 194 °C.

As for `O=C(O)CCCNC(=O)C(CS)Cc1ccccc1` (stereo not drawn), the melting point was 94.5 to 101 °C.

`N#CC(C#N)=C1N(CCCN2CCCC2)CCN1CCN1CCCC1` returned a melting point of 70 to 71 °C.

The molecule `CCCCc1ncc(/C=C(\Cc2cc(OC)cs2)C(=O)O)n1Cc1ccccc1Cl` displayed a melting point of 170 to 171 °C.

The molecule `COC(=O)C1CCSc2cc(OC)c(OC)cc2C1=O` (stereo not drawn) displayed a melting point of 132 to 133 °C.

In turn, `O=C1CCC(CCC(=O)OCc2ccc(C(F)(F)F)cc2)N1` (stereo not drawn) returned a melting point of 81 to 82 °C.

`CN(Cc1ccccc1)C(=O)c1cnc2c([N+](=O)[O-])cccc2c1Cl`: the melting point was in the range of 120 to 121 °C.

In turn, `CCCNC(=O)C(C)Cc1ccc2ccn(Cc3ccc(C(=O)NS(=O)(=O)c4ccccc4C)cc3OC)c2c1` (stereo not drawn) showed a melting point of 192 to 194 °C.

Consider `CC(C)OC(=O)Nc1cc(C2CC2)on1`, for which the melting point lay in the range of 64.5 to 65.5 °C.

For the molecule `Cc1ccc(Nc2nc(-c3ccc(-c4ccccn4)s3)cs2)nc1`, the melting point was 197 to 199 °C.

Molecule `CCOC(=O)NC[C@H]1CN(c2ccc3c(c2)CCCc2cnoc2-3)C(=O)O1` registered a melting point of 181 to 183 °C.

In turn, `CN(C)C(=O)N1CCC2(CC1)CN=C(c1cc3cccc(N(C)S(=O)(=O)c4cccs4)c3[nH]1)S2` registered a melting point of 245 °C.

For `CC(=O)SCC(Cc1ccccc1)C(=O)Nc1ccc(C(=O)O)cc1` (stereo not drawn), the melting point is 187 to 189 °C.

The molecule `CC12C=CCC1C1CCC3CC(=O)CCC3C1CC2` (stereo not drawn) gave a melting point of 51 to 54 °C.

As to `COCC(=O)Nc1cccc2c1C1(COc3cc4c(cc31)OCCO4)C(=O)N2C` (stereo not drawn), the melting point is 237 to 239 °C.

Consider `C=C1CCC(C(O)C(N)=O)CC1` (stereo not drawn), for which the melting point lay within 127 to 129 °C.

For `NC(=O)N(O)Cc1ccc(CCCCCC(F)(F)F)s1`, the melting point was determined as 94 °C.

As to `Cc1cc(-c2ccc(C(F)(F)F)cc2)cn2c(-c3nc(-c4cnc(N)nc4)no3)cnc12`, the melting point worked out at 302 °C.

The molecule `CCOc1ccc(C(=O)C#N)cc1` returned a melting point of 43 °C.

Molecule `COC(=O)CCc1cc2c(Cl)c(Cl)ccc2n1S(=O)(=O)c1ccccc1` registered a melting point of 142 °C.

For `FC(F)(F)c1nc(N=C(Cl)c2cccc(Cl)c2)sc1Cl`, the melting point lay within 89 to 90 °C.

The molecule `CCN(CC)c1ccc(-n2c(CC(=O)O)c(C(=O)O)c3cc(Oc4ccc(Cl)cc4)ccc32)cc1` displayed a melting point of 210 °C.

The molecule `CCOC(=O)c1cnc2c([N+](=O)[O-])cccc2c1N(C)C` returned a melting point of 76 to 77 °C.

`CN(C(=O)Cl)c1ccc2c(c1)OCO2` yielded a melting point of 71 to 73 °C.

`O=C1Cc2cc(NC(=O)C(=O)N3CCC(Oc4ccc(F)cc4)CC3)ccc2N1` had a melting point of 147 to 149 °C.

Consider `CC1(N)CN(c2c(F)cc3c(=O)c4c(=O)[nH]sc4n(C4CC4)c3c2F)C1`, for which the melting point fell in the range of 294 to 300 °C.

For the molecule `CC1(C)C(=O)Nc2cc3[nH]c(-c4cnccn4)nc3cc21`, the melting point was > 300 °C.

Regarding `COc1ccc(-c2nc(Sc3cccc(F)c3)[nH]c2-c2ccc(OC)cc2)cc1`, the melting point fell in the range of 147 to 149 °C.

`COC(=O)C1CSCC1=O` (stereo not drawn) gave a melting point of 51 °C.

`COc1cccc2c(O)c(C(=O)NCC(=O)O)ncc12` returned a melting point of 168 °C.

`Cc1c(C(=O)OC(C)(C)C)c(O)cc2c1C(=O)c1c(O)cccc1C2=O` showed a melting point of 207 °C.

In turn, `Cc1ccc2c(CCN)c[nH]c2c1C` yielded a melting point of 171 to 173 °C.

In the case of `CC(=O)C(O)C1OC(S(=O)(=O)c2ncc(Cl)cn2)C(O)(C(C)=O)C(O)(C(C)=O)C1(O)C(C)=O` (stereo not drawn), the melting point is 180 °C.

Molecule `CCc1ccc(-c2ccc(NC(=O)OC(C)(C)C)c([N+](=O)[O-])c2)cc1` showed a melting point of 94 to 99 °C.

As to `Cc1cc(C(=O)O)ccc1C1=CCCc2ccccc21`, the melting point amounted to 173 °C.

In turn, `CC(=O)N[C@@H](C)COC1CCN(c2nc3ccc(OCC4CC4)cc3o2)CC1` came in with a melting point of 120 °C.

The molecule `CC(C)(C)C(O)Cn1c(=O)c(=NNc2ccccc2)c(=O)n(-c2ccccc2F)c2ccccc21` (stereo not drawn) displayed a melting point of 217 to 218 °C.

The molecule `CCOC(=O)n1cc(F)c(N)nc1=O` came in with a melting point of 190 to 193 °C.

For `Cc1cc(C)n(-c2ccc(C#N)nn2)n1`, the melting point was 187 to 189 °C.

`N#Cc1ccc(Cn2cc(C=CC=O)nn2)cc1` displayed a melting point of 152 to 155 °C.

Consider `CC1(C)CCC(C)(C)c2ccccc21`, for which the melting point lay in the range of 71 to 72 °C.

In the case of `CC(=O)Oc1ccc2nc(NC(=O)Nc3ccccc3)sc2c1`, the melting point is 210 to 213 °C.

As to `O=C(O)c1cn(Cc2ccc(Oc3ccccc3)cc2)nc1OCc1ccc(Oc2ccccc2)cc1`, the melting point was in the range of 141 to 142 °C.

`COC(=O)C1=C(C)NC2=C(C(=O)OC2)C1c1cccc(Br)c1` (stereo not drawn) displayed a melting point of 229 to 231 °C.

For `O=C(C#Cc1ccc(CN2CCCCC2)cc1)Nc1ccc(-c2ccc(Cl)cc2)cc1`, the melting point is 180 °C.

The molecule `O=c1oc(-c2ccc(OCCCC(F)(F)F)cc2)nn1CCO` gave a melting point of 118 °C.

Turning to `CC(=O)On1c(=O)c(=O)[nH]c2cc(Cl)ccc21`, the melting point amounted to 219 °C.

Molecule `CC(=O)NC1CCCCC1CCC(=O)O` (stereo not drawn) showed a melting point of 116 to 121 °C.

As for `COC(=O)c1c(C)nc2ccccc2c1NCc1ccc(Br)cc1`, the melting point turned out to be 89 °C.

For `CC(SN1C(=O)CCC1=O)c1ccccc1` (stereo not drawn), the melting point was in the range of 121 to 125 °C.

With `Cc1cc2ncnn2nc1OCCOCCN1CCN(C(c2ccccc2)c2ccccc2)CC1`, the melting point was in the range of 71 to 72 °C.

On to `O=C(NN1CCCCC1)C1CN(c2ccc(Cl)cc2)C(c2ccc(Cl)cc2Cl)=N1` (stereo not drawn), for which the melting point is 113 to 116 °C.

Molecule `CO[C@]1(c2ncc(S(=O)(=O)c3ccc(/C(C)=N/O)cc3)s2)CCO[C@@H]1C` (racemic) displayed a melting point of 139 to 141 °C.

The molecule `O=C(c1cc2ccc(O)cc2[nH]1)N1CCC(Cc2ccccc2)CC1` came in with a melting point of 214 to 215 °C.

As for `CCN(c1nc(C)cc(C(=O)N2CCOCC2)n1)c1ccc(C(C)C)cc1Br`, the melting point amounted to 145 °C.

For the molecule `CCOC(=O)CCc1cn(Cc2ccc(OCc3cn4c(-c5ccccc5)cccc4n3)cc2)nc1OCC`, the melting point is 104 to 105 °C.

With `O=C1c2ccccc2C(=O)N1Cc1ccc(SC(F)(F)F)cc1`, the melting point lay within 130 to 132 °C.

Regarding `CC(C)Cc1nn(C)c(=O)c2cc(Cc3ccccc3)sc12`, the melting point fell in the range of 97 to 98 °C.

For `Cc1cc2c3c(cccc3c1Br)C(=O)N(O)C2=O`, the melting point fell in the range of 255 to 257 °C.

The molecule `CCCCCCCc1ccc(OC(=O)c2ccc3c(c2N)C(=O)c2ccc(C)c([N+](=O)[O-])c2C3=O)cc1` came in with a melting point of 257 to 259 °C.

Molecule `O=C(O)c1ccc(CNC=C2C(=O)c3ccccc3OC2c2ccccc2)cc1` (stereo not drawn) returned a melting point of 195 to 200 °C.

In turn, `COc1ccc2oc(Cn3cnc4c(N)ncnc43)c(-c3ccccc3)c(=O)c2c1` came in with a melting point of 197 to 198 °C.

With `COc1ncc(NC(N)=S)c(OC)n1`, the melting point was 175 °C.

`CCCc1c(O)ccc2c1OCCC2=O`: the melting point fell in the range of 126 to 129 °C.

Take `CCc1[nH]n(C2CCCC2)c2nc(C3CCNC4CCCCC43)nc(=O)c1-2` (stereo not drawn): the melting point was > 300 °C.

As for `O=Cc1cc([N+](=O)[O-])c(Cl)cc1Cl`, the melting point lay within 61 to 63 °C.

Consider `COC(=O)c1nc(Cl)c(Cl)c(N)c1I`, for which the melting point was in the range of 122 to 123 °C.

On to `CCCSc1ncc(C(=O)N[C@H](Cc2ccccc2)C(=O)O)n1Cc1ccccc1Cl`, for which the melting point lay within 176 to 177 °C.

As for `CCCCCCCCCCCCCCCCCC(=O)ON1C(=O)c2ccccc2C1=O`, the melting point was in the range of 76 to 80 °C.

In turn, `CC(C)N(CCN1C(=O)C(=O)c2ccccc21)C(C)C` showed a melting point of 60 to 61 °C.

As for `Cc1ccc(S(=O)(=O)OCCCCCn2c3c(c4ccccc4c2=O)C(=O)c2ccccc2-3)cc1`, the melting point is 163 to 165 °C.

The molecule `CCC1CCn2c(nc(-c3ccncc3)cc2=O)N1` (stereo not drawn) showed a melting point of 244 to 246 °C.

Molecule `OCC1CC(F)C(n2cnc3c(Cl)ncnc32)O1` (stereo not drawn) registered a melting point of 157 to 158 °C.

`CCOC(=O)c1sc(C)nc1S` had a melting point of 62 to 66 °C.

`O=c1cc(-c2n[nH]c3ccccc23)oc2ccccc12` registered a melting point of 237 to 238 °C.

With `NC(=O)c1c(C(=O)O)cnn1-c1ccc(Cl)c(Cl)c1`, the melting point is 249 to 250 °C.

On to `N#Cc1ccccc1F`, for which the melting point lay within 98 to 100 °C.

`CCc1ccc(Cc2c(O)nn(C(C)C)c2C)cc1` came in with a melting point of 164 to 169 °C.

For the molecule `OCCn1ccc(NC(=S)NCC(F)(F)F)n1`, the melting point was 145 to 146 °C.

Regarding `COc1ccc2[nH]cc(-c3cc4c(C#N)ccnc4[nH]3)c2c1`, the melting point fell in the range of 303 to 304 °C.

`OC[C@]1(c2ccccc2)O[C@H]1c1ccccc1` returned a melting point of 88 to 89 °C.

Consider `Cc1cccc(C)c1N(CC(C)O)C(=O)c1ccccc1` (stereo not drawn), for which the melting point lay within 121 to 122 °C.

`CC(=O)Nc1c(C(=O)c2ccncc2)[nH]c2cc(Cl)ccc12` registered a melting point of 262 to 264 °C.

Take `Cn1ncc(C(=O)O)c1Cl`: the melting point was in the range of 195 to 197 °C.

`O=C(O)c1cc([N+](=O)[O-])ccc1C1SCCCS1` had a melting point of 192 to 194 °C.

The values are drawn from a melting point compilation (Tetko et al.; mined from patent text by program, amines drawn as free bases though some values may be those of a salt).
